{"source": "patent US11174243B2", "about": "“Succinate forms and compositions of Bruton's tyrosine kinase inhibitors” (Sunesis Pharmaceuticals, Inc., priority 2016, dated 2021)", "origin": "cited, not measured here", "details": "mean, cited from earlier work", "note": "Read-outs that look alike come from different tables or passages of the source.", "data": [{"compound": "CC#CC(=O)N1CCC[C@H]1c1nc(-c2ccc(C(=O)Nc3ccccn3)cc2)c2c(N)nccn12", "note": "[Acalabrutinib]", "values": [{"measurement": "AUC0-24", "setting": "100 mg BID (steady state)", "result": 1850, "unit": "ng·h/mL"}, {"measurement": "Cmax", "setting": "100 mg BID (steady state)", "result": 827, "unit": "ng/mL"}]}, {"compound": "C=CC(=O)N1CCC[C@@H](n2nc(-c3ccc(Oc4ccccc4)cc3)c3c(N)ncnc32)C1", "note": "[Ibrutinib]", "values": [{"measurement": "Cmax", "setting": "560 mg (single dose)", "result": 141, "unit": "ng/mL"}]}]}
